The source of these data is patent US8492352B2, “Polysaccharides with antithrombotic activity, including a covalent bond and an amino chain” (Sanofi, priority 2008, dated 2013).

Structures can show the parent of a compound that is named as a salt.

This assay has as its target coagulation factor Xa, in the presence of antithrombin (Homo sapiens, UniProt P01008). Description: in vitro model of inhibition of coagulation factor Xa in the presence of antithrombin (anti-factor Xa activity). The class given is biochemical. The settings on record: method per Herbert et al., Blood 1998, read-out: IC50 (dose for 50% inhibition), inhibition of coagulation factor Xa (converted). The text has this: The pharmacological activity of these products was in particular studied in an in vitro model of inhibition of coagulation factor Xa, in the presence of antithrombin (anti-factor Xa activity dependent on the presence of antithrombin), as described by J.-M. Herbert et al., Blood, 1998, 91, 4197-4205. In this model, the antithrombotic properties of the compounds according to the invention are confirmed.

Sequence of coagulation factor Xa, in the presence of antithrombin (P01008 33-464): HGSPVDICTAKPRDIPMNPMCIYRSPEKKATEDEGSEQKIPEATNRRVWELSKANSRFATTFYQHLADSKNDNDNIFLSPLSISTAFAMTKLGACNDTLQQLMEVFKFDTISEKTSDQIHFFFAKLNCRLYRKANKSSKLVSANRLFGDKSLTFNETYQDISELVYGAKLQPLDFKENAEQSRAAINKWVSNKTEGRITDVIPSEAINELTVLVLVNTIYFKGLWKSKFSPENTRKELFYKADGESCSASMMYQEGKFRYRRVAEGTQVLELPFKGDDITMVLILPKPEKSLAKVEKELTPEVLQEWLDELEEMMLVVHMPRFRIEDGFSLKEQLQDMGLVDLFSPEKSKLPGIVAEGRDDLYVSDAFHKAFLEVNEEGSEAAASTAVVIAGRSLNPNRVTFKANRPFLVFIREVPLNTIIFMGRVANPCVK

By IC50 is commonly meant the point on the concentration scale where inhibition reaches its midpoint. Consider `COC1OC(COS(=O)(=O)O)C(OC2OC(C(=O)O)C(OC3OC(COS(=O)(=O)O)C(OC4OC(C(=O)O)C(OC5OC(COS(=O)(=O)O)C(OC)C(OC)C5NC(=O)CCCCCN)C(OC)C4OC)C(OS(=O)(=O)O)C3OS(=O)(=O)O)C(OC)C2OC)C(OS(=O)(=O)O)C1OS(=O)(=O)O` [compound 1, Methyl(2-[N-(6-aminohexanoyl)]-2-deoxy-3,4-di-O-methyl-6-O-sulfonato-α-D-glucopyranosyl)-(1→4)-(2,3-di-O-methyl-β-D-glucopyranosyluronic acid)-(1→4)-(2,3,6-tri-O-sulfonato-α-D-glucopyranosyl)-(1→4)-(2,3-di-O-methyl-α-L-idopyranosyluronic acid)-(1→4)-2,3,6-tri-O-sulfonato-α-D-glucopyranoside, sodium salt], for which the IC50 was 10.4 nM.
